Experimental data from US9895344B2, “Treating various disorders with 7,8-dihydroxyflavone and derivatives thereof” (EMORY UNIVERSITY, priority 2008, dated 2018).

Experiments:
TrkB [1] = target: T1, TrkB (Mus musculus, UniProt P15209); test: TrkB activation in mouse brain after intraperitoneal injection; assay type: in vivo, mice; conditions: 5 mg/kg intraperitoneally
T1 construct: from tissue; host or cells: mouse brain
Procedure: To assess whether 7,8-dihydroxyflavone can provoke TrkB activation in the brain, mice were intraperitoneally injected with a dose of 5 mg/kg and analyzed at various time points. […] Further, as shown in FIG. 12 (right panel), the protein and mRNA levels of the neurotrophic receptors were not altered after treatment with 7,8-dihydroxyflavone.

GST-TrkB ECD = GST-TrkB ECD (Rattus norvegicus, UniProt Q63604); test: In vitro binding assay with immobilized GST-TrkB ECD on glutathione beads, UV-spectrometry of eluate; conditions: 500 nM, 4° C., 30 minutes, FIG. 17
Procedure: To further explore the association of 7,8-dihydroxyflavone and the TrkB receptor, an in vitro binding assay was performed. Increasing volumes of GST-TrkB ECD and GST-TrkB ICD were bound to glutathione beads to a total of 250 uL, and 500 nM 7,8-dihydroxyflavone in 250 μl (20% DMSO/80% PBS) was incubated with the beads in the column at 4° C. for 30 minutes. After the incubation, the elute fractions were collected and the concentration of eluted 7,8-dihydroxyflavone was analyzed by UV-spectrometry at a wavelength of 410 nm.

TrkB [2] = target: T1, TrkB; test: Trk activation in wild-type and TrkC knockout cortical neurons: TrkB; assay type: cell-based, mice; conditions: FIG. 22
Procedure: (§1) To further assess whether 7,8-dihydroxyflavone blocks neuronal apoptosis in a TrkB dependent manner, cortical neurons were prepared from homozygous pups of TrkC+/−mice, which were mated to the same genotype. […] Glutamate weakly stimulated both TrkA and TrkB faint phosphorylation regardless of TrkC genotype (FIG. 22, rows 1 and 3). The spontaneous caspase-3 activation in TrkC−/− neurons was suppressed by 7,8-dihydroxyflavone (FIG. 22, row 5).

Caspase-3 activation [3] = test: Caspase-3 activation in wild-type and TrkC-/- cortical neurons; assay type: cell-based, mice; conditions: FIG. 22 row 5
Procedure: as §1

TrkB F616A = target: T2, TrkB F616A (Mus musculus, UniProt P15209, F616A); test: TrkB phosphorylation in cortical neurons from TrkB F616A knockin mice; assay type: cell-based; conditions: 0.5 μM, 30 minutes, FIG. 23
T2 construct: endogenous in cells; host or cells: cortical neurons of TrkB F616A knock-in mice
Procedure: To explore whether the neuroprotective action of 7,8-dihydroxyflavone is dependent on TrkB activation in vivo, TrkB F616A knockin mice were used. […] To further assess whether 7,8-dihydroxyflavone can mimic BDNF, cortical neurons were prepared from TrkB F616A knockin mice. The cortical neurons were pretreated for 30 minutes with either K252a Trk tyrosine kinase inhibitor (100 nM) or 1NMPP1 inhibitor (100 nM) followed by 0.5 μM 7,8-dihydroxyflavone for 30 minutes.

immobility [4] = test: Forced swim test, 5 days intraperitoneal; assay type: in vivo, mice; conditions: intraperitoneally for 5 days; imipramine 20 mg/kg, amitryptyline 15 mg/kg, 7,8-dihydroxyflavone 5 mg/kg; FIG. 25
Procedure: Adult male mice (2-3 months old, n=8) were randomly submitted, without a pre-swim, to a forced swim test of 6 minutes with immobility recorded in the last 4 minutes. Mice were injected intraperitoneally for 5 days with saline, imipramine (20 mg/kg), amitryptyline (15 mg/kg), or 7,8-dihydroxyflavone (5 mg/kg). The mice were allowed to adapt to the test room for 2 days, and the mice were placed in a clear glass cylinder with a diameter of 16 cm, half-filled with clear water at 24° C. […] Data are presented as mean±SEM; *p<0.05 against vehicle, **P<0.01 against vehicle and ***P<0.0001 against vehicle, student t-test.

caspase-3 activation [5] = test: Active caspase-3 ELISA in glutamate-treated cortical neurons; assay type: cell-based, rat; conditions: 50 nM or higher concentrations, 50 μM glutamate for 16 hours, FIG. 29
Procedure: To quantitatively compare the anti-apoptotic activity of 7,8-DHF and 4′-DMA-7,8-DHF, cortical neurons were prepared from E16 rat embryonic cells and pretreated with various indicated concentrations of 4′-DMA-7,8-DHF and 7,8-DHF for 30 min, followed by 50 μM glutamate for 16 hours. The cell lysates were quantitatively analyzed with an active caspse-3 ELISA.

immobility [6] = test: Forced swim test after 21 days oral treatment; assay type: in vivo, C57BL/6J mice; conditions: 5 mg/kg, oral injection, FIG. 34
Procedure: Adult male mice (2-3 months old) were randomly submitted to a forced swim test without a pre-swim. Saline, 4′-DMA-7,8-DHF and 7,8-DHF (5 mg/kg) were orally injected for 21 days. The mice were allowed to adapt to the test room for 2 days. The mice were placed in a clear glass cylinder with a diameter of 16 cm, half-filled with clear water at 24° C.
To explore whether 4′-DMA-7,8-DHF and 7,8-DHF have any antidepressant effect, a forced swim test (6 minutes, immobility recorded in the last 4 minutes) was conducted after chronic treatment of male C57BL/6J mice (8 mice/group) for 21 days via oral injection.

TrkA [7] = target: T3, TrkA (Mus musculus, UniProt Q3UFB7); test: Trk activation in wild-type and TrkC knockout cortical neurons: TrkA; assay type: cell-based, mice; design: from tissue; host or cells: mouse brain; conditions: FIG. 22
Procedure: as §1

TrkB [8] = target: TrkB (Rattus norvegicus, UniProt Q63604); test: TrkB receptor dimerization in cotransfected HEK293 cells (GST pull-down); assay type: cell-based; design: expressed in transfected cells; host or cells: HEK293
Procedure: BDNF is known to bind the TrkB receptor and provoke its dimerization (Barbacid, J. Neurobiol., 25:1386-1403, 1994; Klein et al, Cell, 66:395-403, 1991). To explore whether 7,8-dihydroxyflavone triggers TrkB receptor dimerization, HEK293 cells were cotransfected with GST-TrkB and HA-TrkB or HA-TrkA. The cells were then treated with BDNF or small flavone compounds (0.5 μM) for 30 minutes. The cells were harvested, washed once in PBS, and lysed in 1 ml lysis buffer (50 mM Tris, ph 7.4, 150 mM NaCl, 1 mM EDTA, 0.5% Triton X-100, 1.5 mM Na3VO4, 50 mM NaF, 10 mM sodium pyrophosphate, 10 mM sodium β-glycerophosphate, 1 mM phenylmethylsulfonyl fluoride (PMSF), 5 mg/ml aprotinin, 1 mg/ml leupeptin, 1 mg/ml pepstatin A) and centrifuged for 10 minutes at 14,000×g at 4° C. The supernatant was transferred to a fresh tube and transfected TrkB receptor was separated from the supernatant with glutathione beads, and the coprecipitated proteins were resolved on SDS-PAGE.

TrkA [9] = target: T3, TrkA; test: Trk activation in cortical neurons from wild-type and TrkB-null pups: TrkA; assay type: cell-based, mice; design: endogenous in cells; host or cells: primary cortical neurons of mouse pups; conditions: FIG. 21
Procedure: To determine whether 7,8-dihydroxyflavone can selectively activate TrkB receptor and prevent neuronal cell death, cortical neurons were prepared from homozygous pups of TrkB+/−mice, which were mated to the same genotype. […] Glutamate nonselectively elicited weak TrkA phosphorylation in both wild-type and TrkB-null neurons (FIG. 21, row 3).

T1 sequence (P15209 32-821): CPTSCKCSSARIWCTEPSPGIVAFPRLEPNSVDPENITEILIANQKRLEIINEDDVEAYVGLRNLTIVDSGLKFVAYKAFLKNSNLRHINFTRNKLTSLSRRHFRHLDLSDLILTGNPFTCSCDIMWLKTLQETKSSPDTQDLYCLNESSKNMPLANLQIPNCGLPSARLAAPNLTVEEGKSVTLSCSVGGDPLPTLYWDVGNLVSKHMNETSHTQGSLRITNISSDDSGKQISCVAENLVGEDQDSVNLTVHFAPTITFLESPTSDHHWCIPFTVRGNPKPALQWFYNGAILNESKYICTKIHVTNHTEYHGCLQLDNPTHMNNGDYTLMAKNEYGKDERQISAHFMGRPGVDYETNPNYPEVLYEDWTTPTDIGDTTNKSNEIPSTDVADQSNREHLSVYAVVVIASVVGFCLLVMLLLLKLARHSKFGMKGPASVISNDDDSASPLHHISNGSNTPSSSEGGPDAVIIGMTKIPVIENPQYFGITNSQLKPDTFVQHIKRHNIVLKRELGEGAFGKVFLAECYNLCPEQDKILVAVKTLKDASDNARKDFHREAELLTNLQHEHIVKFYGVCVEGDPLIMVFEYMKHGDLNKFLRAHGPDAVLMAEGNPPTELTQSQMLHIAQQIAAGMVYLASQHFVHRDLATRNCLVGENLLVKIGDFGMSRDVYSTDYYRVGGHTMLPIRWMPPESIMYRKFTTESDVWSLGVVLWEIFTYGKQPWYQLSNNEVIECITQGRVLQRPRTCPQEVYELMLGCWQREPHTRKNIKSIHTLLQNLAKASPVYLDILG
Chain of TrkB (Rattus norvegicus, UniProt Q63604) (Q63604 32-821): as the sequence (P15209 32-821) above, with T3M, S9T, A10T, V32I, R63K, S84G, M153T, L185I, S394T, S770N counted along it
Chain of TrkB (Rattus norvegicus, UniProt Q63604) (Q63604 32-821): as the sequence (P15209 32-821) above, with T3M, S9T, A10T, V32I, R63K, S84G, M153T, L185I, S394T, S770N counted along it
T3 sequence (Q3UFB7 34-799): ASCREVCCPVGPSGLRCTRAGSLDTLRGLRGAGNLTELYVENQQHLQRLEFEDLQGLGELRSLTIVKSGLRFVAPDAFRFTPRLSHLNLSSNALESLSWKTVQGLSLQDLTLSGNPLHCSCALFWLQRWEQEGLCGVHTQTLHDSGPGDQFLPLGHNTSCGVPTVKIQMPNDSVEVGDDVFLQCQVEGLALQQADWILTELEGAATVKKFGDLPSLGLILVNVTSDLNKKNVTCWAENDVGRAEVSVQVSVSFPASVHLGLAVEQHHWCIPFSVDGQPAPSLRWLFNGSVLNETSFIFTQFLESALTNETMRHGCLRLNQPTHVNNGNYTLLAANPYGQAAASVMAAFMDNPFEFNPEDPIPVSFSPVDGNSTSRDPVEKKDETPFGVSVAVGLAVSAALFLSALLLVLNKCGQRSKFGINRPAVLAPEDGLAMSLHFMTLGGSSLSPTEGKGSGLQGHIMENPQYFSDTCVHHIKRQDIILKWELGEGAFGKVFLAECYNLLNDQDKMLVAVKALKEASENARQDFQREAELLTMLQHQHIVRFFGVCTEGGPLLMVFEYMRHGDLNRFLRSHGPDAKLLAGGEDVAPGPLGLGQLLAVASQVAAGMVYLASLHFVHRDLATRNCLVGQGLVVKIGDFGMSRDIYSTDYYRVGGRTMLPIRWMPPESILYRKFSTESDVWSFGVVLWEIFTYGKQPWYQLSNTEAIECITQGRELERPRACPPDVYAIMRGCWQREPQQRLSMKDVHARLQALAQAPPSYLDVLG
T2 sequence (P15209 32-821 F616A): as the sequence (P15209 32-821) above, with F585A counted along it
Chain of GST-TrkB ECD (Q63604 32-429 limits assumed): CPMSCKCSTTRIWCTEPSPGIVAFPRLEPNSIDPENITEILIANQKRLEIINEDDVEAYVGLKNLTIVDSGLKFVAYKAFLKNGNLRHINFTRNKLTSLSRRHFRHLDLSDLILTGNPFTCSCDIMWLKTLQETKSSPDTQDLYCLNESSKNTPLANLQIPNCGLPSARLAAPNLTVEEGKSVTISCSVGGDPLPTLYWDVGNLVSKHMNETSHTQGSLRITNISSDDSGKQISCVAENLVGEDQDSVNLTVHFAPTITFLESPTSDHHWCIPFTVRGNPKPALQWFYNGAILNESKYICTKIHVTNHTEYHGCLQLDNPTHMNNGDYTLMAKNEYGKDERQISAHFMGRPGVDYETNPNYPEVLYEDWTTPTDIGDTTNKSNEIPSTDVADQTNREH

With `O=c1cc(-c2ccccc2)oc2c(O)c(O)ccc12` [7,8-dihydroxyflavone] the “TrkB phosphorylation in the brain” value (TrkB [1]; 2 hours after injection, FIG. 12) was “selectively phosphorylated”, the “protein and mRNA levels of the neurotrophic receptors” value (TrkB [1]; FIG. 12 right) was “not altered” and the “TrkB phosphorylation in the hippocampus (immunofluorescent staining)” value (TrkB [1]; FIG. 13) was “substantial TrkB phosphorylation”. For the same compound, the “concentration of eluted compound as GST-TrkB ECD volumes increased” value (GST-TrkB ECD) was “decreased”, the “TrkB activation in wild-type and TrkC knockout neurons” value (TrkB [2]) was “provoked TrkB” and the “spontaneous caspase-3 activation in TrkC-/- neurons” value (Caspase-3 activation [3]) was “suppressed”. The “glutamate-triggered caspase-3 activation” value (Caspase-3 activation [3]; regardless of TrkC genotype) was “significantly diminished”, the “activation of TrkB F616A” value (TrkB F616A) was “selectively activates TrkB F616A” and the swimming immobility (immobility [4]) was “reduced the immobility”. For the same compound, the “Glutamate-provoked caspase-3 activation” value (caspase-3 activation [5]) was “substantially blocked”, the swimming immobility (immobility [6]) was “significantly decreased” and the “TrkA activation in wild-type and TrkC knockout neurons” value (TrkA [7]) was “not TrkA activation”. For the same compound, the “dimerization of TrkB with TrkA receptor” value (TrkB [8]; GST-TrkB and HA-TrkA cotransfected) was “failed to dimerize with TrkA receptor”, the TrkB dimerization (TrkB [8]; GST-TrkB and HA-TrkB, 0.5 μM, 30 minutes, FIG. 14) was “provoked TrkB dimerization to a similar manner as BDNF” and the TrkA activation (TrkA [9]) was “not TrkA receptor”.
